Test results: patent US11179452B2, “Antigen specific multi epitope vaccines” (priority 2006, dated 2021)
No end group written: not given here.

How the values were obtained:
Type in all cases: cell-based, human
[1] = system: PBMC; assay: Proliferation, direct presentation of peptide via PBMC (monocytes); details: for PBL Index of stimulation (SI) via PBMC: naive donors, representative of 5 experiments; for Optimal dose via PBMC: optimal dose required for PBL activation, six donors; for Optimal dose via PBMC / Peak of Proliferation (Hours) via PBMC: average of 5 experiments; for Peak of Proliferation (Hours) via PBMC: visual inspection daily during 5 days
Description: (§1) Proliferation analysis was conducted in three different methods. In all three methods, plates were cultured for 3-5 days under visual control and then 0.5 […]Cu/well of 3[H] (Amersham) was added for additional culture of to 18 h at 37° C. In the last step, plates were harvested and the radioactive counts were measured in a □ counter. • 1. DC indirect presentation: In the first method, 100 µl of 2×10^6 thawed PBL were placed in U-shape Bottom 96 well plate (Nunc) with RPMI medium supplemented with 5% H AB serum, L-Glutamine, Sodium Pyruvate, MEM-EAGLE non-essential amino-acids, HEPES and Gentamycin. At the next stage 100 µl of 25×10^4 peptide-pulsed DC were added to each three wells of PBL and underwent proliferation analysis as described above. • 2. PBL direct presentation: In the 2nd method, 100 µl of 2×10^6 PBL were placed in Flat Bottom 96 well plates (Corning) and stimulated with different concentrations (0.05 ug/ml-2 ug/ml) of peptides. In the next step the cells underwent proliferation analysis as described above. • 3. PBMC direct presentation: In third method PNMC were used under similar conditions as described for the second method.
b. Direct presentation of the peptides via PBMC i.e. monocytes
(§2) Five experiments were performed according to the protocol described in material and methods with buffy-coat enriched PBLs obtained from six different naive donors (obtained from the Israeli blood bank).

[2] = system: PBL; assay: Proliferation of PBL, DC indirect presentation (peptide-pulsed autologous DC); details: for PBL Index of stimulation (SI) via DC: naive donors, CPM sample / CPM control, representative of 5 experiments; for IS (SI of the peptides as indicated in Table 7): one out of five experiments; for IS (SI of the peptides as indicated in Table 7) / Optimal dose via DC: six donors; for Optimal dose via DC: optimal dose required for PBL activation; for Optimal dose via DC / Peak of Proliferation (Hours) via DC: average of 5 experiments; for Peak of Proliferation (Hours) via DC: visual inspection by light microscopy daily during 5 days
Description: (§3) Human PBMC were separated from buffy coat samples of naive donors using Ficoll UNI-SEPmaxi tube. Separated cells were suspended in RPMI medium supplemented with 10% FCS, L-Glutamine, Sodium Pyruvate, MEM-EAGLE non-essential amino-acids, HEPES and Gentamycin Sulphate (Bet-Haemek Industries, IL) and cultivated for 4 h at 37° C. in a culture dish (Corning 150 mm×25 mm). Adherent cells were collected and cultured for 7 days in serum free DCCM-1 medium supplemented with L-Glutamine, huIL-4 (1000 IU/ml) (Cytolab IL) and GM-CSF-80 ug/ml (Cytolab IL). On day seven floating cells were collected and loaded with 50 ug/ml of examined peptide for 18 h at 37° C.
as §1
In the first set of experiments, the 21mer ImMucin, its different 9mer epitopes and other control epitopes (Table 3) were evaluated in proliferation assays with the aim of finding their optimal mode of presentation, stimulated dose as well as their peak of activity (time wise).
To evaluate the most efficient method for priming of PBLs with the different peptides, the following methods were compared:
a. In-direct presentation of the peptide via Autologues-pulsed DC
as §2

[3] = system: T-Cell specific subpopulation (Clones); assay: ELISA of cytokine secretion by the T-cell specific subpopulation (clones) stimulated with peptides; details: two experiments, four donors
Source text: (§4) Thawed PBLs underwent 1st stimulation with ImMucin pulsed Autologues DC at a ratio of 20:1 and cultured for 7 days in dedicated T cell Medium. T cell medium contained RPMI medium supplemented with 10% FCS, L-Glutamine, Sodium Pyruvate, MEM-EAGLE non-essential amino-acids, HEPES and Gentamycin Sulphate (Bet-Haemek Industries, IL) as well as with 50 IU/ml of recombinant IL-7 (Cytolab IL). For the second stimulation, PBL were transferred to adherent autologues ImMucin-pulsed PBMC and cultured for additional 5 days in T cell Medium. At the end of the 5 days, medium was partial replaced with fresh medium containing 1 ug/ml of ImMucin and 50 IU/ml IL-2 for a third stimulation of 48 h at 37° C. Following the last stimulation ImMucin T cell line was checked for immune activation properties.
(§5) Cytokine release was studied during the culture of stimulated T-cells. The evaluated samples were collected from the T cell culture medium on day 2, 3, and 5 and stored until use at −20° C.
(§6) […] of the selected capture antibody (e.g. anti-Hu IFN-Gamma, or anti-Hu TNF-alfa or anti IL-2) were added to each well at the final concentration of 5 μg/ml in PBS. Plates were incubated for 2 h at R.T. or over night at 4° C. Next, […] of blocking solution were added for an incubation of 2 h at R.T. […] of evaluated samples were added in duplicate into 2 wells for 2 hours at RT. After 2 h of incubation at R.T plates were washed λ4 times in washing solution. In the next step, a Biotin-conjugated detection antibody (relevant to coated antibody) was added at a final concentration of 10 μg/ml in total volume of 100 μl for 1 h at R.T. Finally, 100 μl/well working dilution (1:10000 in Blocker solution) of Streptavidin-HRP were added to each well and incubated for 1 h at R.T.
(§7) Plates were washed λ6 times with PBS-Tween (0.4%) and 100 μl/well of TMB/E Solution (CHEMICON, Catalog #ES001) was added. The plates were then exposed until blue color appeared in the wells of the positive control and no color was detected in the blank wells. To stop the color reaction, 50 μl/well of 10% of Sulfuric acid was added. The plates were counted in ELISA-Reader using a 450 nm filter.
(§8) For that purpose, an enriched ImMucin-specific T cell subpopulation was produced via repeated stimulation with ImMucin. The specificity of the subpopulation for ImMucin, as well as to the other VXL epitopes, was examined using proliferation assays, cytokine release assays, FACS analysis in which the percentage and type of cells enriched during the enrichment process was analyzed, and using a CTL assay against selected target cells.
(§9) For producing the specific T cell subpopulation PBL were stimulated three times for 7, 5 and 2 days with ImMucin presented via DC and PBMC. Following the 3rd stimulation the cells were evaluated against the different VXL epitopes.

[4] = system: ImMucin specific T-cell subpopulation; assay: Proliferation of the ImMucin-specific T-cell subpopulation after three stimulations; details: one out of two experiments, four donors
Source text: as §4, §1, §8, §9

[5] = system: PBL; assay: ELISA of cytokine secretion by PBL stimulated once with peptide-pulsed DC; details: peptide DC ratio 16:1, one out of five experiments, six donors
Description: as §3, §5, §6, §7

[6] = system: lymphocytes from naive donors; assay: Proliferation assay, kinetics of lymphocyte activation as summarised in text (presentation mode not stated); details: summary of five experiments
Description: as §1
A different parameter for assessing the properties of ImMucin and the other VXL-peptide epitopes is by analyzing the time until a maximal peak of activity occurs and the optimal dose for maximal stimulation. Maximal peak of PBL activation is determined when <50% of the PBLs appear in clumps. In these experiments, the kinetic (time) in the proliferation of lymphocytes from the six naive donors stimulated at a fix dose of 0.05-1 ug/ml by ImMucin and other VXL-Peptides, was observed.

[7] = system: PBL; assay: Proliferation of PBL, direct presentation of peptide without APC; details: for PBL Index of stimulation (SI) Direct no APC: naive donors, representative of 5 experiments; for Optimal dose Direct no APC: optimal dose required for PBL activation, six donors; for Optimal dose Direct no APC / Peak of Proliferation (Hours) Direct no APC: average of 5 experiments; for Peak of Proliferation (Hours) Direct no APC: visual inspection daily during 5 days
Description: In all three methods, plates were cultured for 3-5 days under visual control and then 0.5 □Cu/well of 3[H] (Amersham) was added for additional culture of to 18 h at 37° C. […] DC indirect presentation: In the first method, 100 µl of 2×10^6 thawed PBL were placed in U-shape Bottom 96 well plate (Nunc) with RPMI medium supplemented with 5% H AB serum, L-Glutamine, Sodium Pyruvate, MEM-EAGLE non-essential amino-acids, HEPES and Gentamycin. At the next stage 100 µl of 25×10^4 peptide-pulsed DC were added to each three wells of PBL and underwent proliferation analysis as described above. • 2. PBL direct presentation: In the 2nd method, 100 µl of 2×10^6 PBL were placed in Flat Bottom 96 well plates (Corning) and stimulated with different concentrations (0.05 ug/ml-2 ug/ml) of peptides. In the next step the cells underwent proliferation analysis as described above. • 3. PBMC direct presentation: In third method PNMC were used under similar conditions as described for the second method.
Direct presentation of peptides to PBL without any APC

Sequence: LLLTVLTVV [VXL-1, LLLTVLTVV]
- PBL Index of stimulation (SI) via PBMC [1]: 1.59
- Optimal dose via PBMC [1]: 0.05 to 1 µg/mL
- Peak of Proliferation (Hours) via PBMC [1]: 120 h
- PBL Index of stimulation (SI) via DC ([2]; listed as VLX-1): 3.2
- IS (SI of the peptides as indicated in Table 7) [2]: 3.2
- Optimal dose via DC [2]: 12.5-25 × × 10e6/well
- Peak of Proliferation (Hours) via DC [2]: 120 h
- IL-2 % of clones [3]: 83%
- INF-gamma % of clones [3]: 33%
- TNF-Alfa % of clones [3]: 83%
- TNF-Alfa Range [3]: 2.7 to 9.8 ng/mL
- IS (Average) [4]: 3.05
- IS (Range) [4]: 1.66-4.4
- IFN-gamma [5]: 0 ng/mL
- IL-2 [5]: 0 ng/mL
- peak of proliferation / maximum stimulation [6]: 120 h
- PBL Index of stimulation (SI) Direct no APC [7]: 0
- Optimal dose Direct no APC [7]: No Influence
- Peak of Proliferation (Hours) Direct no APC [7]: No proliferation

Sequence: LLLLTVLTV [VXL-2, LLLLTVLTV]
- PBL Index of stimulation (SI) via PBMC [1]: 1.2
- Optimal dose via PBMC [1]: 0.05 to 1 µg/mL
- Peak of Proliferation (Hours) via PBMC [1]: 120 h
- PBL Index of stimulation (SI) via DC [2]: 2.2
- IS (SI of the peptides as indicated in Table 7) [2]: 2.2
- Optimal dose via DC [2]: 12.5-25 × × 10e6/well
- Peak of Proliferation (Hours) via DC [2]: 120 h
- IL-2 % of clones [3]: 50%
- IL-2 Range [3]: 2.53 to 10.2 ng/mL
- INF-gamma % of clones [3]: 25%
- INF-gamma Range [3]: 1.4 to 8.9 ng/mL
- TNF-Alfa % of clones [3]: 83%
- TNF-Alfa Range [3]: 1.9 to 9.4 ng/mL
- IL-2 Range ng/ml ([3]; listed as VXL2): high
- INF-gamma Range ng/ml ([3]; listed as VXL2): high
- IS (Average) [4]: 3.275
- IS (Range) [4]: 1.45-5.1
- IFN-gamma [5]: 0 ng/mL
- IL-2 [5]: 0 ng/mL
- TNF-Alfa [5]: 0 ng/mL
- peak of proliferation / maximum stimulation [6]: 120 h
- PBL Index of stimulation (SI) Direct no APC [7]: 0
- Optimal dose Direct no APC [7]: No Influence
- Peak of Proliferation (Hours) Direct no APC [7]: No proliferation
